Laboratory results taken from the kinase profiling compilation of Christmann-Franck et al. (2016).
pIC50: −log10 of the molar value.

Assays:
CSNK2A2 (human) = CSNK2A2 (human) (UniProt P19784); experiment: KINOMEscan competition binding; settings: compound 10.0 µM
PIM1 (human) [1] = target: PIM1 (human) (UniProt P11309); experiment: KINOMEscan competition binding; settings: compound 10.0 µM
MAP2K3 (human) = MAP2K3 (human) (UniProt P46734); experiment: KINOMEscan competition binding; settings: compound 10.0 µM
PIK3CG (human) = PIK3CG (human) (UniProt P48736); experiment: KINOMEscan competition binding; settings: compound 10.0 µM
PIM2 (human) [2] = target: PIM2 (human) (UniProt Q9P1W9); experiment: KINOMEscan competition binding; settings: compound 10.0 µM
TTK (human) = TTK (human) (UniProt P33981); experiment: KINOMEscan competition binding; settings: compound 10.0 µM
MAPK12 (human) = MAPK12 (human) (UniProt P53778); experiment: KINOMEscan competition binding; settings: compound 10.0 µM
AAK1 (human) = AAK1 (human) (UniProt Q2M2I8); experiment: KINOMEscan competition binding; settings: compound 10.0 µM
TAOK3 (human) = TAOK3 (human) (UniProt Q9H2K8); experiment: KINOMEscan competition binding; settings: compound 10.0 µM
[3] = target: TYK2 JH2 pseudokinase (human) (UniProt P29597); experiment: KINOMEscan competition binding; settings: compound 10.0 µM
DAPK1 (human) = DAPK1 (human) (UniProt P53355); experiment: KINOMEscan competition binding; settings: compound 10.0 µM
MINK1 (human) = MINK1 (human) (UniProt Q8N4C8); experiment: KINOMEscan competition binding; settings: compound 10.0 µM
RPS6KA4 KD2 (human) = RPS6KA4 KD2 (human) (UniProt O75676); experiment: KINOMEscan competition binding; settings: compound 10.0 µM
MYLK4 (human) = MYLK4 (human) (UniProt Q86YV6); experiment: KINOMEscan competition binding; settings: compound 10.0 µM
HIPK1 (human) = HIPK1 (human) (UniProt Q86Z02); experiment: KINOMEscan competition binding; settings: compound 10.0 µM
DAPK3 (human) = DAPK3 (human) (UniProt O43293); experiment: KINOMEscan competition binding; settings: compound 10.0 µM
STK17A (human) = STK17A (human) (UniProt Q9UEE5); experiment: KINOMEscan competition binding; settings: compound 10.0 µM
GAK (human) = GAK (human) (UniProt O14976); experiment: KINOMEscan competition binding; settings: compound 10.0 µM
TGFBR2 (human) = TGFBR2 (human) (UniProt P37173); experiment: KINOMEscan competition binding; settings: compound 10.0 µM
ACVR2B (human) = ACVR2B (human) (UniProt Q13705); experiment: KINOMEscan competition binding; settings: compound 10.0 µM
CDK16 (human) = CDK16 (human) (UniProt Q00536); experiment: KINOMEscan competition binding; settings: compound 10.0 µM
STK17B (human) = STK17B (human) (UniProt O94768); experiment: KINOMEscan competition binding; settings: compound 10.0 µM
MYLK (human) = MYLK (human) (UniProt Q15746); experiment: KINOMEscan competition binding; settings: compound 10.0 µM
PLK4 (human) = PLK4 (human) (UniProt O00444); experiment: KINOMEscan competition binding; settings: compound 10.0 µM
DAPK2 (human) = DAPK2 (human) (UniProt Q9UIK4); experiment: KINOMEscan competition binding; settings: compound 10.0 µM
RIOK1 (human) = RIOK1 (human) (UniProt Q9BRS2); experiment: KINOMEscan competition binding; settings: compound 10.0 µM
DYRK1B (human) = DYRK1B (human) (UniProt Q9Y463); experiment: KINOMEscan competition binding; settings: compound 10.0 µM
CDK7 (human) = CDK7 (human) (UniProt P50613); experiment: KINOMEscan competition binding; settings: compound 10.0 µM
GSK3A (human) = GSK3A (human) (UniProt P49840); experiment: KINOMEscan competition binding; settings: compound 10.0 µM
ACVR2A (human) = ACVR2A (human) (UniProt P27037); experiment: KINOMEscan competition binding; settings: compound 10.0 µM
MAPK15 (human) = MAPK15 (human) (UniProt Q8TD08); experiment: KINOMEscan competition binding; settings: compound 10.0 µM
TAOK1 (human) = TAOK1 (human) (UniProt Q7L7X3); experiment: KINOMEscan competition binding; settings: compound 10.0 µM
MKNK2 (human) = MKNK2 (human) (UniProt Q9HBH9); experiment: KINOMEscan competition binding; settings: compound 10.0 µM
PIM3 (human) = PIM3 (human) (UniProt Q86V86); experiment: KINOMEscan competition binding; settings: compound 10.0 µM
PIM1 (human) [4] = target: PIM1 (human) (UniProt P11309); experiment: SelectScreen, TR FRET
PIM2 (human) [5] = target: PIM2 (human) (UniProt Q9P1W9); experiment: SelectScreen, TR FRET
[6] = test system: EIF2AK4 KD2 (human), Q9P2K8 [S808G]; experiment: KINOMEscan competition binding; settings: compound 10.0 µM
CSNK2A1 (human) = CSNK2A1 (human) (UniProt P68400); experiment: KINOMEscan competition binding; settings: compound 10.0 µM
ZAP70 (human) = ZAP70 (human) (UniProt P43403); experiment: KINOMEscan competition binding; settings: compound 10.0 µM
CLK4 (human) = CLK4 (human) (UniProt Q9HAZ1); experiment: KINOMEscan competition binding; settings: compound 10.0 µM

Sequence of PIM1 (human) (P11309 whole entry, looked up): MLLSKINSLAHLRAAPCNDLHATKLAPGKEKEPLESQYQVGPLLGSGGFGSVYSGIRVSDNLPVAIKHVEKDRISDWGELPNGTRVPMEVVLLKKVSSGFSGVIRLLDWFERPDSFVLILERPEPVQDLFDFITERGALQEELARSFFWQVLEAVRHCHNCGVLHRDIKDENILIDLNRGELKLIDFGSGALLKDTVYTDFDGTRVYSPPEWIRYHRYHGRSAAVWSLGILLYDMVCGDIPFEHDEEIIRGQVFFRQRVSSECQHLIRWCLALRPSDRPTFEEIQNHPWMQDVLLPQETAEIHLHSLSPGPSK
Sequence of PIM2 (human) (Q9P1W9 whole entry, looked up): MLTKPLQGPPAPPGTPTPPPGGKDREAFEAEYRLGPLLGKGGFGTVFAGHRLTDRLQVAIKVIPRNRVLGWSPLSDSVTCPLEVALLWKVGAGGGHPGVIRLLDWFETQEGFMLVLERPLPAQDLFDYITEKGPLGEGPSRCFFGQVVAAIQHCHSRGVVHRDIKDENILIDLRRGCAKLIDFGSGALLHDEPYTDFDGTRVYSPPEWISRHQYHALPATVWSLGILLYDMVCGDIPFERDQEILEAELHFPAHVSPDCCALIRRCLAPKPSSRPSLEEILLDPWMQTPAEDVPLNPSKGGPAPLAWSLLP
Sequence of DAPK2 (human) (Q9UIK4 whole entry, looked up): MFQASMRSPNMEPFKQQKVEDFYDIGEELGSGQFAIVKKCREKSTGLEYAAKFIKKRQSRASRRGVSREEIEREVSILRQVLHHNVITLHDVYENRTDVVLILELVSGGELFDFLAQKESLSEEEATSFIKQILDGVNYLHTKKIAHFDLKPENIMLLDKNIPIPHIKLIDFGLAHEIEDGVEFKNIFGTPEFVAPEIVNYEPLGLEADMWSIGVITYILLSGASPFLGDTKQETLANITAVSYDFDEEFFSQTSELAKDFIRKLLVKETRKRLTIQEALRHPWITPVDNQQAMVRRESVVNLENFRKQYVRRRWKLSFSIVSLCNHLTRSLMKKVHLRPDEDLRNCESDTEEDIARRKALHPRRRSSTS
Sequence of HIPK1 (human) (Q86Z02 whole entry, looked up): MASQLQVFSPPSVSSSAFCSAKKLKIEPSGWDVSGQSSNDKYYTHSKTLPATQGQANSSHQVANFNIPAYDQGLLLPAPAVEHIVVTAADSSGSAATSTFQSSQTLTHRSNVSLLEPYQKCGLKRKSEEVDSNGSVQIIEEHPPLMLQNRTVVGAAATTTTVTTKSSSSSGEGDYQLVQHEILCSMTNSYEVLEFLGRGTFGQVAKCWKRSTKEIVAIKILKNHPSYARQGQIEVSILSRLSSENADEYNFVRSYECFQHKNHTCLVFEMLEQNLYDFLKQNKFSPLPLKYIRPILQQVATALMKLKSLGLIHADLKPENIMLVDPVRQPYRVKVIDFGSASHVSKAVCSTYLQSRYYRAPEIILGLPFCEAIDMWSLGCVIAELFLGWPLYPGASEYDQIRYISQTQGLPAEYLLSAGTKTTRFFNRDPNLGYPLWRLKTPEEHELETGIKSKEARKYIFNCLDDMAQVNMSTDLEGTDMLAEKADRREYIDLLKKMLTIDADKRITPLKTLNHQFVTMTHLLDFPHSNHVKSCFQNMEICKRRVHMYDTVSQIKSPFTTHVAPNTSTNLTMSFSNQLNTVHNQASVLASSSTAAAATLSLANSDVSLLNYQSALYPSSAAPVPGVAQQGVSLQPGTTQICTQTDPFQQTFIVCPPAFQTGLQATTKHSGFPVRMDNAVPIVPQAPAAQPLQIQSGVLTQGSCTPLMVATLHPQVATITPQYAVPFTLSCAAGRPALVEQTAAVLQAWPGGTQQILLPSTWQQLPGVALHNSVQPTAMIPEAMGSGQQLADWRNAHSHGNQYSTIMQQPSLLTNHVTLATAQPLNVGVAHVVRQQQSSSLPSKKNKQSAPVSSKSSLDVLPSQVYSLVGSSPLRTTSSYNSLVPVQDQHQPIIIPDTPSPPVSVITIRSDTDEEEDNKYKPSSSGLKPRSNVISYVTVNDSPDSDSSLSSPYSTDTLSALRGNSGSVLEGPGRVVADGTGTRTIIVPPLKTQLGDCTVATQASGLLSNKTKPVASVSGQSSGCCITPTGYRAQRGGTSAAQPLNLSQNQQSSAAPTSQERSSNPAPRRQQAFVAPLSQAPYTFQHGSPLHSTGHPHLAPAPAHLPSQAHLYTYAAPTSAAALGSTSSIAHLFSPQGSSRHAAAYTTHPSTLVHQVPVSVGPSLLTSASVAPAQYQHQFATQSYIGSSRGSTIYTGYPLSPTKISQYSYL
Sequence of PIK3CG (human) (P48736 whole entry, looked up): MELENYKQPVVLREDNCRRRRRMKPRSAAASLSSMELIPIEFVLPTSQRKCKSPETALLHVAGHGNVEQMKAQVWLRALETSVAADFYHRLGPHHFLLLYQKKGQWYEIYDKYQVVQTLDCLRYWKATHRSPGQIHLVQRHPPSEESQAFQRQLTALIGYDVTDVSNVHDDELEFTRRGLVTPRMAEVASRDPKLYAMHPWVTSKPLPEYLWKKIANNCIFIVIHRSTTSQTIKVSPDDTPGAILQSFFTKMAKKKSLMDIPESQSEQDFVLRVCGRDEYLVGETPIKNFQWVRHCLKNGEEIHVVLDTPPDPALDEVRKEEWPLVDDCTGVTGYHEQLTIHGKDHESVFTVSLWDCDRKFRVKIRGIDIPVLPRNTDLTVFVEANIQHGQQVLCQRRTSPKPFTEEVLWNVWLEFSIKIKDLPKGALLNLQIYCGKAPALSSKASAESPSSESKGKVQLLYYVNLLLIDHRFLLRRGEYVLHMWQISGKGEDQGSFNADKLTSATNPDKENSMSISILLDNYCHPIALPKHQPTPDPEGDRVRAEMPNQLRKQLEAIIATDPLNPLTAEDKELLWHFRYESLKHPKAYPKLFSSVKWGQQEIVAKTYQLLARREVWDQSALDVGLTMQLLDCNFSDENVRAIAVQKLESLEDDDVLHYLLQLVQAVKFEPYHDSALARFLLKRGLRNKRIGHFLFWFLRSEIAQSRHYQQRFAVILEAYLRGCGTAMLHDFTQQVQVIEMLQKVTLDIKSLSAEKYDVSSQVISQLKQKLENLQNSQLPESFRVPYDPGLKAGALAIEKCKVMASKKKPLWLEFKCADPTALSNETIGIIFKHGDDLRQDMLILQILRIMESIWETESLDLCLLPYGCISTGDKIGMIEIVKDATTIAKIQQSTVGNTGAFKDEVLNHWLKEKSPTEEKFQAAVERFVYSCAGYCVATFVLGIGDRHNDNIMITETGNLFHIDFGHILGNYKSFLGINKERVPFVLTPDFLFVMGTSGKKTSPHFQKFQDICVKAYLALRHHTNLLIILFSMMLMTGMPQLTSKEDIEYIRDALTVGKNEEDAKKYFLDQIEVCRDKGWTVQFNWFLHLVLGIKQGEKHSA
Sequence of CDK7 (human) (P50613 whole entry, looked up): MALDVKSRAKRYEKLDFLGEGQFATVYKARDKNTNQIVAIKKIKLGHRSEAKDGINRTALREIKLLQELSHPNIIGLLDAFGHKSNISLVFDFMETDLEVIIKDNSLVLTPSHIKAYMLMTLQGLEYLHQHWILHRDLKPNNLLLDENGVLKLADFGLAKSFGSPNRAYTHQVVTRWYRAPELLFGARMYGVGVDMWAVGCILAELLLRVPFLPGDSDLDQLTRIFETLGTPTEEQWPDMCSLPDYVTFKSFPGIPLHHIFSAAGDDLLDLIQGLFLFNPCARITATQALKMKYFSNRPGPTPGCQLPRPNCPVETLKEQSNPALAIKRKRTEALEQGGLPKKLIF
Sequence of MAPK12 (human) (P53778 whole entry, looked up): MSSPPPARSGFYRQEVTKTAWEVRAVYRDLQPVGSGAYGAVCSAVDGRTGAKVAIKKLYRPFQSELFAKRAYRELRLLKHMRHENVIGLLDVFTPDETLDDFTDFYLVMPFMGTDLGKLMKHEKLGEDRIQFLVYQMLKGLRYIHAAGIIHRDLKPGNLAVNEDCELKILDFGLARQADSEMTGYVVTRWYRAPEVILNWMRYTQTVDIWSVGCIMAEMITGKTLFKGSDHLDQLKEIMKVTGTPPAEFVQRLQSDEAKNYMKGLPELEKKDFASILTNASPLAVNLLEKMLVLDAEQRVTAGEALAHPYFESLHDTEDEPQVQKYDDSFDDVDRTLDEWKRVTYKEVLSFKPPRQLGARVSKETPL
Sequence of CSNK2A2 (human) (P19784 whole entry, looked up): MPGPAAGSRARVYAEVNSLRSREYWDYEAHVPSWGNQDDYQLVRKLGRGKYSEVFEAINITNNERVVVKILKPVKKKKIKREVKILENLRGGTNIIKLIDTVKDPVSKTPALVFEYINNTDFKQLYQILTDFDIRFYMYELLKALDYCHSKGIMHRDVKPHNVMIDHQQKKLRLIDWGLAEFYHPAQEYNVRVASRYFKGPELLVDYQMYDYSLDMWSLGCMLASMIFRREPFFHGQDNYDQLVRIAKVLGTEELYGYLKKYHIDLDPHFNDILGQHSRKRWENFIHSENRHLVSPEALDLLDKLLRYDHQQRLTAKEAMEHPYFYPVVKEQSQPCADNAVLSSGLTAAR

Row | Structure (SMILES) | kinase still bound, per cent of control (CSNK2A2 (human)) | kinase still bound, per cent of control (PIM1 (human) [1]) | kinase still bound, per cent of control (PIK3CG (human)) | kinase still bound, per cent of control (PIM2 (human) [2]) | kinase still bound, per cent of control (MAPK12 (human)) | kinase still bound, per cent of control [3] | kinase still bound, per cent of control (HIPK1 (human)) | kinase still bound, per cent of control (STK17A (human)) | kinase still bound, per cent of control (TGFBR2 (human)) | kinase still bound, per cent of control (STK17B (human)) | kinase still bound, per cent of control (PLK4 (human)) | kinase still bound, per cent of control (DAPK2 (human)) | kinase still bound, per cent of control (CDK7 (human)) | kinase still bound, per cent of control (GSK3A (human)) | kinase still bound, per cent of control (PIM3 (human)) | pIC50 (PIM1 (human) [4]) | pIC50 (PIM2 (human) [5]) | other results
1 | CS(=O)(=O)Nc1ccc(-c2ccc(/C=C3\SC(=N)NC3=O)o2)cc1 | 28% | 2.9% | 25% | 0.9% | 12% | 21% | 0% | 0.65% | 2.8% | 2.8% | 0.3% | 9% | 1.3% | 10% | 5% | 6.69 | 6.56 | kinase still bound, per cent of control (MAP2K3 (human)): 7.8%; kinase still bound, per cent of control (TTK (human)): 23%; kinase still bound, per cent of control (AAK1 (human)): 34%; kinase still bound, per cent of control (TAOK3 (human)): 16%; kinase still bound, per cent of control (DAPK1 (human)): 8.7%; kinase still bound, per cent of control (MINK1 (human)): 30%; kinase still bound, per cent of control (RPS6KA4 KD2 (human)): 13%; kinase still bound, per cent of control (MYLK4 (human)): 8.2%; kinase still bound, per cent of control (DAPK3 (human)): 17%; kinase still bound, per cent of control (GAK (human)): 22%; kinase still bound, per cent of control (ACVR2B (human)): 14%; kinase still bound, per cent of control (CDK16 (human)): 0.3%; kinase still bound, per cent of control (MYLK (human)): 12%; kinase still bound, per cent of control (RIOK1 (human)): 21%; kinase still bound, per cent of control (DYRK1B (human)): 24%; kinase still bound, per cent of control (ACVR2A (human)): 7.5%; kinase still bound, per cent of control (MAPK15 (human)): 0.65%; kinase still bound, per cent of control (TAOK1 (human)): 3%; kinase still bound, per cent of control (MKNK2 (human)): 33%
2 | COc1cc(C(N)=O)ccc1-c1ccc(/C=C2\SC(=N)NC2=O)o1 | 31% | 3.4% | 28% | 0.95% | 27% | 5.1% | 5.2% | 0.4% | 14% | 1.6% | 22% | 34% | 29% | 28% | 5.6% | 6.06 | 6.12 | kinase still bound, per cent of control [6]: 29%; kinase still bound, per cent of control (CSNK2A1 (human)): 18%; kinase still bound, per cent of control (ZAP70 (human)): 29%; kinase still bound, per cent of control (CLK4 (human)): 17%
